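Following 48 hours of exposure in 96-well plates, responses at five concentrations were used to interpolate endpoints linearly. Abbreviation: GI50, concentration required for 50% inhibition of growth. Definition used: TGI = concentration required for complete inhibition of growth.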
How the values were obtained:
Assay in all cases: NCI tumour cell line growth inhibition, 48 h
SR leukemia = test system: SR leukemia
A549 NSCLC = test system: A549 NSCLC
K-562 leukemia = test system: K-562 leukemia
HOP-62 NSCLC = test system: HOP-62 NSCLC
HCC-2998 colon = test system: HCC-2998 colon
MCF7 breast = test system: MCF7 breast
HOP-92 NSCLC = test system: HOP-92 NSCLC
KM12 colon = test system: KM12 colon
IGROV1 ovarian = test system: IGROV1 ovarian
SF-268 CNS = test system: SF-268 CNS
OVCAR-5 ovarian = test system: OVCAR-5 ovarian
MDA-MB-231 breast = test system: MDA-MB-231 breast
COLO 205 colon = test system: COLO 205 colon
MOLT-4 leukemia = test system: MOLT-4 leukemia
BT-549 breast = test system: BT-549 breast
SNB-19 CNS = test system: SNB-19 CNS
A498 renal = test system: A498 renal
SK-OV-3 ovarian = test system: SK-OV-3 ovarian
SK-MEL-28 melanoma = test system: SK-MEL-28 melanoma
SNB-75 CNS = test system: SNB-75 CNS
T-47D breast = test system: T-47D breast
HCT-15 colon = test system: HCT-15 colon
NCI-H522 lung = test system: NCI-H522 lung
MDA-MB-435 = test system: MDA-MB-435
CCRF-CEM leukemia = test system: CCRF-CEM leukemia
PC-3 prostate = test system: PC-3 prostate
SN12C renal = test system: SN12C renal
SF-295 CNS = test system: SF-295 CNS
MDA-MB-468 breast = test system: MDA-MB-468 breast
CAKI-1 renal = test system: CAKI-1 renal
SK-MEL-2 melanoma = test system: SK-MEL-2 melanoma
RXF 393 renal = test system: RXF 393 renal
786-0 renal = test system: 786-0 renal
HT29 colon = test system: HT29 colon
UO-31 renal = test system: UO-31 renal
NCI-H226 lung = test system: NCI-H226 lung
HL-60(TB) leukemia = test system: HL-60(TB) leukemia
SF-539 CNS = test system: SF-539 CNS
RPMI-8226 leukemia = test system: RPMI-8226 leukemia
MALME-3M melanoma = test system: MALME-3M melanoma
SK-MEL-5 melanoma = test system: SK-MEL-5 melanoma
OVCAR-3 ovarian = test system: OVCAR-3 ovarian
TK-10 renal = test system: TK-10 renal
U251 CNS = test system: U251 CNS
UACC-62 melanoma = test system: UACC-62 melanoma
OVCAR-4 ovarian = test system: OVCAR-4 ovarian
HCT-116 colon = test system: HCT-116 colon
ACHN renal = test system: ACHN renal
OVCAR-8 ovarian = test system: OVCAR-8 ovarian
NCI-H460 lung = test system: NCI-H460 lung
LOX IMVI melanoma = test system: LOX IMVI melanoma
UACC-257 melanoma = test system: UACC-257 melanoma
HS 578T breast = test system: HS 578T breast
SW-620 colon = test system: SW-620 colon
DU-145 prostate = test system: DU-145 prostate
NCI-H23 lung = test system: NCI-H23 lung
M14 melanoma = test system: M14 melanoma

**Q.** Which GI50 (SR leukemia) does the source give for `O=C(Nc1ccc(I)cc1F)c1cc(-c2ccc(F)cc2F)ccc1O` here?
**A.** 2.49 µM

**Q.** And the TGI (SR leukemia)?
**A.** 8.71 µM

**Q.** And the GI50 (A549 NSCLC)?
**A.** 3.09 µM

**Q.** What about the TGI (A549 NSCLC) of the same compound?
**A.** 47.4 µM

**Q.** And the GI50 (K-562 leukemia)?
**A.** 2.77 µM

**Q.** What about the TGI (K-562 leukemia) of the same compound?
**A.** 11 µM

**Q.** What about the GI50 (HOP-62 NSCLC) of the same compound?
**A.** 1.97 µM

**Q.** What about the TGI (HOP-62 NSCLC) of the same compound?
**A.** 4.91 µM

**Q.** And the GI50 (HCC-2998 colon)?
**A.** 3.12 µM

**Q.** And the TGI (HCC-2998 colon)?
**A.** 26.5 µM

**Q.** And the GI50 (MCF7 breast)?
**A.** 2.7 µM

**Q.** And the TGI (MCF7 breast)?
**A.** 11 µM

**Q.** And the GI50 (HOP-92 NSCLC)?
**A.** 2.42 µM

**Q.** What about the TGI (HOP-92 NSCLC) of the same compound?
**A.** 5.93 µM

**Q.** What about the GI50 (KM12 colon) of the same compound?
**A.** 2.78 µM

**Q.** And the TGI (KM12 colon)?
**A.** 8.1 µM

**Q.** What about the GI50 (IGROV1 ovarian) of the same compound?
**A.** 4.65 µM

**Q.** What about the TGI (IGROV1 ovarian) of the same compound?
**A.** > 100 µM

**Q.** And the GI50 (SF-268 CNS)?
**A.** 3.1 µM

**Q.** And the TGI (SF-268 CNS)?
**A.** > 100 µM

**Q.** What about the GI50 (OVCAR-5 ovarian) of the same compound?
**A.** 6.63 µM

**Q.** And the TGI (OVCAR-5 ovarian)?
**A.** > 100 µM

**Q.** What about the GI50 (MDA-MB-231 breast) of the same compound?
**A.** 1.88 µM

**Q.** What about the TGI (MDA-MB-231 breast) of the same compound?
**A.** 4.31 µM

**Q.** And the GI50 (COLO 205 colon)?
**A.** 1.91 µM

**Q.** What about the TGI (COLO 205 colon) of the same compound?
**A.** 4.13 µM

**Q.** And the GI50 (MOLT-4 leukemia)?
**A.** 2.58 µM

**Q.** What about the TGI (MOLT-4 leukemia) of the same compound?
**A.** 9.32 µM

**Q.** What about the GI50 (BT-549 breast) of the same compound?
**A.** 2.36 µM

**Q.** What about the TGI (BT-549 breast) of the same compound?
**A.** 6.08 µM

**Q.** What about the GI50 (SNB-19 CNS) of the same compound?
**A.** 3.38 µM

**Q.** What about the TGI (SNB-19 CNS) of the same compound?
**A.** > 100 µM

**Q.** What about the GI50 (A498 renal) of the same compound?
**A.** 2.54 µM

**Q.** And the TGI (A498 renal)?
**A.** 7.14 µM

**Q.** And the GI50 (SK-OV-3 ovarian)?
**A.** 2.04 µM

**Q.** And the TGI (SK-OV-3 ovarian)?
**A.** 5.55 µM

**Q.** And the GI50 (SK-MEL-28 melanoma)?
**A.** 3.76 µM

**Q.** And the TGI (SK-MEL-28 melanoma)?
**A.** > 100 µM

**Q.** What about the GI50 (SNB-75 CNS) of the same compound?
**A.** 1.49 µM

**Q.** What about the TGI (SNB-75 CNS) of the same compound?
**A.** 3.92 µM

**Q.** And the GI50 (T-47D breast)?
**A.** 2.12 µM

**Q.** What about the TGI (T-47D breast) of the same compound?
**A.** 6.04 µM

**Q.** And the GI50 (HCT-15 colon)?
**A.** 3.07 µM

**Q.** What about the TGI (HCT-15 colon) of the same compound?
**A.** 28.8 µM

**Q.** And the GI50 (NCI-H522 lung)?
**A.** 2.71 µM

**Q.** What about the TGI (NCI-H522 lung) of the same compound?
**A.** 8.62 µM

**Q.** And the GI50 (MDA-MB-435)?
**A.** 2.59 µM

**Q.** And the TGI (MDA-MB-435)?
**A.** 7.58 µM

**Q.** And the GI50 (CCRF-CEM leukemia)?
**A.** 3.31 µM

**Q.** What about the TGI (CCRF-CEM leukemia) of the same compound?
**A.** 17 µM

**Q.** What about the GI50 (PC-3 prostate) of the same compound?
**A.** 3.09 µM

**Q.** What about the TGI (PC-3 prostate) of the same compound?
**A.** > 100 µM

**Q.** And the GI50 (SN12C renal)?
**A.** 2.34 µM

**Q.** And the TGI (SN12C renal)?
**A.** 6.88 µM

**Q.** And the GI50 (SF-295 CNS)?
**A.** 2.12 µM

**Q.** What about the TGI (SF-295 CNS) of the same compound?
**A.** 4.91 µM

**Q.** And the GI50 (MDA-MB-468 breast)?
**A.** 2.2 µM

**Q.** What about the TGI (MDA-MB-468 breast) of the same compound?
**A.** 5.76 µM

**Q.** And the GI50 (CAKI-1 renal)?
**A.** 1.71 µM

**Q.** And the TGI (CAKI-1 renal)?
**A.** 4.83 µM

**Q.** What about the GI50 (SK-MEL-2 melanoma) of the same compound?
**A.** 1.79 µM

**Q.** And the TGI (SK-MEL-2 melanoma)?
**A.** 4.16 µM

**Q.** And the GI50 (RXF 393 renal)?
**A.** 1.88 µM

**Q.** What about the TGI (RXF 393 renal) of the same compound?
**A.** 5.45 µM

**Q.** And the GI50 (786-0 renal)?
**A.** 3.06 µM

**Q.** What about the TGI (786-0 renal) of the same compound?
**A.** 9.11 µM

**Q.** And the GI50 (HT29 colon)?
**A.** 3.77 µM

**Q.** And the TGI (HT29 colon)?
**A.** > 100 µM

**Q.** And the GI50 (UO-31 renal)?
**A.** 2.44 µM

**Q.** What about the TGI (UO-31 renal) of the same compound?
**A.** 9.57 µM

**Q.** What about the GI50 (NCI-H226 lung) of the same compound?
**A.** 2.21 µM

**Q.** And the TGI (NCI-H226 lung)?
**A.** 6.3 µM

**Q.** And the GI50 (HL-60(TB) leukemia)?
**A.** 1.8 µM

**Q.** And the TGI (HL-60(TB) leukemia)?
**A.** 5.66 µM

**Q.** And the GI50 (SF-539 CNS)?
**A.** 3.2 µM

**Q.** What about the TGI (SF-539 CNS) of the same compound?
**A.** 11.6 µM

**Q.** And the GI50 (RPMI-8226 leukemia)?
**A.** 2.1 µM

**Q.** What about the TGI (RPMI-8226 leukemia) of the same compound?
**A.** 5.67 µM

**Q.** What about the GI50 (MALME-3M melanoma) of the same compound?
**A.** 2.98 µM

**Q.** And the TGI (MALME-3M melanoma)?
**A.** 7.93 µM

**Q.** What about the GI50 (SK-MEL-5 melanoma) of the same compound?
**A.** 1.72 µM

**Q.** What about the TGI (SK-MEL-5 melanoma) of the same compound?
**A.** 3.29 µM

**Q.** And the GI50 (OVCAR-3 ovarian)?
**A.** 3.04 µM

**Q.** What about the TGI (OVCAR-3 ovarian) of the same compound?
**A.** 9.16 µM

**Q.** What about the GI50 (TK-10 renal) of the same compound?
**A.** 3.96 µM

**Q.** What about the TGI (TK-10 renal) of the same compound?
**A.** 11.1 µM

**Q.** And the GI50 (U251 CNS)?
**A.** 2.31 µM

**Q.** And the TGI (U251 CNS)?
**A.** 5.94 µM

**Q.** What about the GI50 (UACC-62 melanoma) of the same compound?
**A.** 2.32 µM

**Q.** And the TGI (UACC-62 melanoma)?
**A.** 6.89 µM

**Q.** And the GI50 (OVCAR-4 ovarian)?
**A.** 3.16 µM

**Q.** And the TGI (OVCAR-4 ovarian)?
**A.** 27.1 µM

**Q.** What about the GI50 (HCT-116 colon) of the same compound?
**A.** 2.8 µM

**Q.** And the TGI (HCT-116 colon)?
**A.** 8.81 µM

**Q.** What about the GI50 (ACHN renal) of the same compound?
**A.** 3.06 µM

**Q.** What about the TGI (ACHN renal) of the same compound?
**A.** 11.1 µM

**Q.** And the GI50 (OVCAR-8 ovarian)?
**A.** 3.17 µM

**Q.** And the TGI (OVCAR-8 ovarian)?
**A.** 32.9 µM

**Q.** What about the GI50 (NCI-H460 lung) of the same compound?
**A.** 2.78 µM

**Q.** And the TGI (NCI-H460 lung)?
**A.** 8.42 µM

**Q.** And the GI50 (LOX IMVI melanoma)?
**A.** 3.21 µM

**Q.** What about the TGI (LOX IMVI melanoma) of the same compound?
**A.** 10.9 µM

**Q.** What about the GI50 (UACC-257 melanoma) of the same compound?
**A.** 2.41 µM

**Q.** What about the TGI (UACC-257 melanoma) of the same compound?
**A.** 7.15 µM

**Q.** What about the GI50 (HS 578T breast) of the same compound?
**A.** 2.58 µM

**Q.** What about the TGI (HS 578T breast) of the same compound?
**A.** 7.38 µM

**Q.** What about the GI50 (SW-620 colon) of the same compound?
**A.** 3.31 µM

**Q.** And the TGI (SW-620 colon)?
**A.** 13.6 µM

**Q.** What about the GI50 (DU-145 prostate) of the same compound?
**A.** 3.68 µM

**Q.** What about the TGI (DU-145 prostate) of the same compound?
**A.** > 100 µM

**Q.** And the GI50 (NCI-H23 lung)?
**A.** 2.14 µM

**Q.** And the TGI (NCI-H23 lung)?
**A.** 6.04 µM

**Q.** What about the GI50 (M14 melanoma) of the same compound?
**A.** 2.05 µM

**Q.** What about the TGI (M14 melanoma) of the same compound?
**A.** 5.48 µM

Reference: PubChem BioAssay (NCI)
